Measurements published in patent US7557108B2, “(Indol-4-yl) or (indol-5-yl)-piperazinylmethanones” (Hoffmann-La Roche Inc., priority 2007, dated 2009).

Molecular target: T1, human H3R (Homo sapiens, UniProt Q9Y5N1)
T1 construct: expressed in transfected cells; host or cells: CHO cells
Assay: Binding assay with 3H-(R)α-methylhistamine (competition binding, membranes of the human H3R-CHO cell line)
Settings: competition with 3H(R)α-methylhistamine (1 nM), Ki calculated from IC50 by Cheng-Prusoff
Method: Binding Assay With ^3H—(R)α-methylhistamine
Saturation binding experiments were performed using HR3-CHO membranes prepared as described in Takahashi, K, Tokita, S., Kotani, H. (2003) J. Pharmacol. Exp. Therapeutics 307, 213-218.
An appropriate amount of membrane (60 to 80 μg protein/well) was incubated with increasing concentrations of ^3H(R)α-Methylhistamine di-hydrochloride (0.10 to 10 nM). Non specific binding was determined using a 200 fold excess of cold (R)α-Methylhistamine dihydrobromide (500 nM final concentration). The incubation was carried out at room temperature (in deep-well plates shaking for three hours). The final volume in each well was 250 μl. The incubation was followed by rapid filtration on GF/B filters (pre-soaked with 100 μl of 0.5% PEI in Tris 50 mM shaking at 200 rpm for two hours). The filtration was made using a cell-harvester and the filter plates were then washed five times with ice cold washing buffer containing 0.5 M NaCl. After harvesting, the plates were dried at 55° C. for 60 min, then we added scintillation fluid (Microscint 40, 40 microl in each well) and the amount of radioactivity on the filter was determined in Packard top-counter after shaking the plates for two hours at 200 rpm at room temperature.
Binding Buffer: 50 mM Tris-HCl pH 7.4 and 5 mM MgCl2×6H2O pH 7.4. Washing Buffer: 50 mM Tris-HCl pH 7.4 and 5 mM MgCl2×6H2O and 0.5 M NaCl pH 7.4.
Indirect measurement of affinity of H3R inverse agonists: twelve increasing concentrations (ranging from 10 μM to 0.3 nM) of the selected compounds were always tested in competition binding experiments using membrane of the human H3R—CHO cell line. An appropriate amount of protein, e.g. approximately 500 cpm binding of RAMH at Kd, were incubated for 1 hour at room temperature in 250 μl final volume in 96-well plates in presence of ^3H(R)α-methylhistamine (1 nM final concentration=Kd). Non-specific binding was determined using a 200 fold excess of cold (R)α-methylhistamine dihydrobromide.
All compounds were tested at a single concentration in duplicate. […] The concentration at which 50% inhibition of the radioligand ^3H(R)α-methylhistamine is obtained (the IC50) is determined from the linear regression of a plot of the logarithm of the concentration versus percent inhibition measured for the different concentrations. Ki's were calculated from IC50 based on Cheng-Prusoff equation (Cheng, Y, Prusoff, W H (1973) Biochem Pharmacol 22, 3099-3108): Ki=IC50/[1+D/Kd] wherein D is the concentration of the radioligand and Kd is the binding constant for the radioligand binding to the receptor under the conditions used in the competition experiment.

T1 sequence (Q9Y5N1 whole entry): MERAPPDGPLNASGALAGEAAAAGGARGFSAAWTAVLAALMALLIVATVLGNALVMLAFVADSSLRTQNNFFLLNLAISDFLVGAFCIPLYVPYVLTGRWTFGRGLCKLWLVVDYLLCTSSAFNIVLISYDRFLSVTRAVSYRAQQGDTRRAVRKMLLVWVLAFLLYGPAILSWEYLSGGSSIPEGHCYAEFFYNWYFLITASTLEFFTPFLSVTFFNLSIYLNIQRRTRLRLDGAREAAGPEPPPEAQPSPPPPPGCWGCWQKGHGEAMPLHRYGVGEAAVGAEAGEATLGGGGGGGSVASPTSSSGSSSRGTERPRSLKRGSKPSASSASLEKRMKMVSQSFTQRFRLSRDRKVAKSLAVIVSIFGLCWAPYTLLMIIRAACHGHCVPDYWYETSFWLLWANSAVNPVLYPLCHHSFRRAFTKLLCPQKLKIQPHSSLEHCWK

SMILES	Ki [nM]
O=C(c1cccc2c1ccn2Cc1ccc(F)cc1Cl)N1CCN(C2CCCC2)CC1 [Example 41, [1-(2-chloro-4-fluoro-benzyl)-1H-indol-4-yl]-(4-cyclopentyl-piperazin-1-yl)-methanone]	17.4
CC(C)N1CCN(C(=O)c2ccc3c(ccn3CC3CCCC3)c2)CC1 [Example 1, (1-Cyclopentylmethyl-1H-indol-5-yl)-(4-isopropyl-piperazin-1-yl)-methanone]	84.4
CC(C(=O)c1ccccc1)n1ccc2c(C(=O)N3CCN(C4CCCC4)CC3)cccc21 (stereo not shown) [Example 34, 2-[4-(4-Cyclopentyl-piperazine-1-carbonyl)-indol-1-yl]-1-phenyl-propan-1-one]	93.5
O=C(c1ccc2c(ccn2S(=O)(=O)c2cccs2)c1)N1CCN(C2CCCC2)CC1 [Example 20, (4-cyclopentyl-piperazin-1-yl)-[1-(thiophene-2-sulfonyl)-1H-indol-5-yl]-methanone]	52.2
